Tested on: T1, α1-acid-glycoprotein (AAG); orosomucoid
T1 construct: gene ORM1; docking only used 3kq0
Assay: intrinsic fluorescence quenching, excitation […] nm
Type: binding
Conditions: double-log; 297 K, 0.01 M phosphate buffer pH 7.4, 1.0 µM AAG, ligand stock in EtOH, inner filter corrected

Q: How did the “Binding / Kb.10^4 [dm^3.mol^-1]” value turn out when `Cc1c2c(OCc3nn(CN4CCN(c5ccccc5)CC4)c(=S)o3)nn(C)c(=O)c2c(C)n1-c1ccccc1` [compound 3, pyrrolo[3,4-d]pyridazinone derivative 3] was run?
A: Its value is 4.57 × 10^4 dm^3·mol^−1.

Q: How did the “Binding / Kb.10^4 [dm^3.mol^-1]” value turn out when `Cc1c2c(OCc3nn(CN4CCN(c5ccc([N+](=O)[O-])cc5)CC4)c(=S)o3)nn(C)c(=O)c2c(C)n1-c1ccccc1` [compound 4, pyrrolo[3,4-d]pyridazinone derivative 4] was run?
A: The value was 5.01 × 10^4 dm^3·mol^−1.

Q: `Cc1c2c(OCc3nn(CN4CCC(O)(c5ccc(Cl)cc5)CC4)c(=S)o3)nn(C)c(=O)c2c(C)n1-c1ccccc1` [compound 5, pyrrolo[3,4-d]pyridazinone derivative 5] was tested. Which “Binding / Kb.10^4 [dm^3.mol^-1]” value did it give?
A: Its value is 1.41 × 10^4 dm^3·mol^−1.

Q: For `CCCCn1c(C)c2c(OCc3nn(CN4CCN(c5ccccc5)CC4)c(=S)o3)nn(C)c(=O)c2c1C` [compound 1, pyrrolo[3,4-d]pyridazinone derivative 1], which “Binding / Kb.10^4 [dm^3.mol^-1]” value is on record?
A: The value was 3.09 × 10^4 dm^3·mol^−1.

Q: Which “Binding / Kb.10^4 [dm^3.mol^-1]” value does the source give for `CCCCn1c(C)c2c(OCc3nn(CN4CCC(O)(c5ccc(Cl)cc5)CC4)c(=S)o3)nn(C)c(=O)c2c1C` [compound 2, pyrrolo[3,4-d]pyridazinone derivative 2] here?
A: The value was 4.57 × 10^4 dm^3·mol^−1.

— article PMC10855066, “Anti-Inflammatory and Antioxidant Pyrrolo[3,4-d]pyridazinone Derivatives Interact with DNA and Bind to Plasma Proteins—Spectroscopic and In Silico Studies” (International Journal of Molecular Sciences, 2024)
